# Legend:
# Assay type in all cases: cell-based, human
# naive T cells = assay: Expansion of naive T cells, soluble versus nanomatrix-conjugated CD28 in presence of soluble CD3; details: soluble CD3 alone, day 7
# Experimental: (§1) FIG. 6: Comparison of soluble CD3 or CD28 antibodies to CD3 or CD28 antibodies conjugated to nanomatrices. Naive CD4 and CD8 T cells were isolated and stimulated in vitro in the presence of IL-2 using soluble CD3 (0-10000 ng/mL) w/o CD28 (A) or in the presence of soluble CD28 (200 ng/ml) (B) and compared to CD28 conjugated to nanomatrix (200 ng/ml) and analysed for early activation markers CD25/CD69 on day 5 or for expansion (C) on day 7. 2 donors were analysed in duplicates.
# We also tested the effect of conjugation of CD28 antibodies to the nanomatrix. Since the effects of costimulation are best visualized under suboptimal CD3 stimulation, we titrated CD28 either soluble or conjugated to the nanomatrix in the presence of soluble CD3 to a culture of naïve T cells. […] In the presence of soluble CD28 however a 2-6 fold expansion was detectable but only at the highest tested dose of CD28 (10000 ng/ml).
# [1] = tested on: naive CD4 and CD8 T cells; assay: Induction of early activation markers CD25/CD69, soluble versus nanomatrix-conjugated CD3
# Experimental: as §1
# IL-2 was added to all cultures. […] In contrast the CD3 coated nanomatrix (100 ng/ml CD3) induced CD25/CD69 expression in 40-70% of the cells.
# [2] = tested on: CD8+ T cell subsets and PBMC from melanoma patients; assay: Fold expansion of MART-1 TCR transduced cultures; details: IL2, day 13-15 after stimulation
# Excerpt: CD8^+ T cell subsets from freshly isolated PBMC from melanoma patients were isolated and the stimulated with coated CD3 plus soluble CD28 (CD3+CD28 in the graph) or with CD3/CD28/CD2 coated MACSiBeads (MACSiBeads in the graph) or with CD3/CD28 Nanomatrix in the presence of IL2. After 2 days of stimulation cells have been transduced to express MART-1 TCR. In the graph is reported the fold expansion of each culture at day 13-15 after stimulation.
# One important application for activating and expanding T cells and in particular purified cell subsets is their genetic manipulation, e.g. to introduce a certain antigen receptor with specificity for tumor antigens. We have used nanomatrices to activate purified naïve (TN, CD62L+CD45RA+), central memory (TCM, CD62L+CD45RA−) and effector (TEM, CD62L−CD45RA−) T cells and transduced them using a retroviral vector expressing a TCR specific for MART-1, a tumor antigen. To test the relative frequency of transgene expression in these T cell subsets we performed MHC-peptide Class I tetramer staining. All T cell subsets are efficiently transduced (>50%) independent on the stimulatory conditions we tested (FIG. 7). We also compared the in vitro expansion of the transduced T cells. As shown in FIG. 8 after 10 days we observed no differences with regard to expansion of the three subsets under all conditions. […]
substance,measurement,setting,value
"soluble CD3: soluble anti-CD3 antibody (CD3 antibodies, clone OKT3)",expansion of naive T cells,naive T cells,did not induce any expansion
same,up-regulation of early activation markers CD25 and CD69,"[1]; 10-10000 ng/ml, without CD28, IL-2, day 5",did not induce any significant up-regulation
same,CD25/CD69 expression,"[1]; highest tested doses 100-10000 ng/ml, with soluble CD28 200 ng/ml, IL-2, day 5",20-40 % of the cells
same,fold expansion,[2],57.61±17.75

# Reference: patent US20150240204A1, “METHOD FOR POLYCLONAL STIMULATION OF T CELLS BY MOBILE NANOMATRICES” (MILTENYI BIOTEC GMBH, priority 2012, published 2015)
